Measurements from PMC12801976, “Enzyme-Powered CO2 Utilization: A Bifunctional Immobilized Biocatalyst for Intensified CCU of Industrial Feedstocks to High-Value Chemicals” (ACS Sustainable Chemistry & Engineering, 2025).

Target: T1, glycerol dehydrogenase (GlyDH)
T1 construct: His-tagged, produced and purified in house (details only in SI); multimeric zinc metalloenzyme; free enzyme
Assay: NADH formation at […] nm, DHA dose series
Format: biochemical
Settings: free enzyme; product inhibition; standard assay 100 mM glycerol, 2.5 mM NAD+, 100 mM phosphate pH 7.0, 30 °C

IC50: 330 µM
SMILES: O=C(CO)CO [DHA, dihydroxyacetone]
